Calls of active or inactive are those of the source.
Key:
fMet-Leu-Phe receptor = target: T1, fMet-Leu-Phe receptor (Homo sapiens, UniProt P21462); assay: formyl peptide receptor binders – dose response (AID 519); assay type: functional
T1 sequence (P21462 whole entry): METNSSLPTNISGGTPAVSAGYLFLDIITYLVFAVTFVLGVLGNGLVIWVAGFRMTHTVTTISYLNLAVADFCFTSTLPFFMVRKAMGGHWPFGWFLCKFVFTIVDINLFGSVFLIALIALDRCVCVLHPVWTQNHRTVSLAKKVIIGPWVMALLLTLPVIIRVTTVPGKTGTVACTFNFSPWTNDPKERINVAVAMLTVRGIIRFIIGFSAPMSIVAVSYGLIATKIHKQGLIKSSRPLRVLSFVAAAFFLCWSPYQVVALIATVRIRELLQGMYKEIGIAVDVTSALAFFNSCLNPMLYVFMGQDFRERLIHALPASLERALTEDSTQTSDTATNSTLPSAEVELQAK

[1] = target: G-protein coupled receptor 55 (Homo sapiens, UniProt Q9Y2T6); assay: inhibition of LPI-stimulated GPR55 beta-arrestin translocation – imaging, U2OS, beta-arrestin-GFP, LPI agonist, primary screen (AID 2013); assay type: functional;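 further: antagonist potency measured as reduced agonist-driven arrestin aggregation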
G-protein coupled receptor 55, sequence (Q9Y2T6 whole entry): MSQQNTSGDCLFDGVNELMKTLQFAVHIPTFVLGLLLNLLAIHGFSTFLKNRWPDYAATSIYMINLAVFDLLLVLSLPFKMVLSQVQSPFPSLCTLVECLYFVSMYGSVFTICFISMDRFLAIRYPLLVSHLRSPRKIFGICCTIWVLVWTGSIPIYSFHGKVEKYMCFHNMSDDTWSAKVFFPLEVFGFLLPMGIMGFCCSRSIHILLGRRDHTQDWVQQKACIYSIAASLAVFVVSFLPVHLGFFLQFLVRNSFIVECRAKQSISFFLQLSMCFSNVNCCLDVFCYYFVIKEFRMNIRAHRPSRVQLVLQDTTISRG

HEK293 = assay: cells; assay type: functional, cell-based; conditions: Homo sapiens
[2] = target: T2, Nuclear receptor subfamily 0 group B member 1 (Homo sapiens, UniProt P51843); assay: Luminescence-based cell-based high throughput dose response assay for inhibitors of the orphan nuclear receptor subfamily 0, group B, member 1 (DAX1; NR0B1). [Related pubchem assays (depositor defined):AID504766, AID504790]; assay type: functional
T2 sequence (P51843 whole entry): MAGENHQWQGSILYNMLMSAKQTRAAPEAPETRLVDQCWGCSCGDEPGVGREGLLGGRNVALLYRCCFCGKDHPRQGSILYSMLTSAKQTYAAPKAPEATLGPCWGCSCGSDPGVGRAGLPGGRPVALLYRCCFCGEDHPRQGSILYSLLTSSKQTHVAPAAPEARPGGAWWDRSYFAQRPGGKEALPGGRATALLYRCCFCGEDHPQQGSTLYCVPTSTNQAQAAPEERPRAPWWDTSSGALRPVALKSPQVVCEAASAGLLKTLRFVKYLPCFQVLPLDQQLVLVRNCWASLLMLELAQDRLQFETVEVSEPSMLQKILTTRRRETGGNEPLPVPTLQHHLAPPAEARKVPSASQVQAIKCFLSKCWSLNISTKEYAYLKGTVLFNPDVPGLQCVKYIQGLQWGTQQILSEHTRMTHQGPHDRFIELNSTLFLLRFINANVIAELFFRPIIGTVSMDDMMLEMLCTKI

Prothrombin = Prothrombin (Homo sapiens, UniProt P00734); assay: Thrombin 1536 HTS Dose Response Confirmation. [Related pubchem assays: 1046 (Thrombin 1536 HTS; hits were confirmed in this assay)]; assay type: functional
[3] = target: T3, Short transient receptor potential channel 4 (Mus musculus, UniProt Q9QUQ5); assay: calcium entry via TRPC4 opening agents – cell-based, HEK293 TRPC4/mu-opioid, Fluo-4 calcium, dose response (AID 434937); assay type: functional
T3 sequence (Q9QUQ5 whole entry): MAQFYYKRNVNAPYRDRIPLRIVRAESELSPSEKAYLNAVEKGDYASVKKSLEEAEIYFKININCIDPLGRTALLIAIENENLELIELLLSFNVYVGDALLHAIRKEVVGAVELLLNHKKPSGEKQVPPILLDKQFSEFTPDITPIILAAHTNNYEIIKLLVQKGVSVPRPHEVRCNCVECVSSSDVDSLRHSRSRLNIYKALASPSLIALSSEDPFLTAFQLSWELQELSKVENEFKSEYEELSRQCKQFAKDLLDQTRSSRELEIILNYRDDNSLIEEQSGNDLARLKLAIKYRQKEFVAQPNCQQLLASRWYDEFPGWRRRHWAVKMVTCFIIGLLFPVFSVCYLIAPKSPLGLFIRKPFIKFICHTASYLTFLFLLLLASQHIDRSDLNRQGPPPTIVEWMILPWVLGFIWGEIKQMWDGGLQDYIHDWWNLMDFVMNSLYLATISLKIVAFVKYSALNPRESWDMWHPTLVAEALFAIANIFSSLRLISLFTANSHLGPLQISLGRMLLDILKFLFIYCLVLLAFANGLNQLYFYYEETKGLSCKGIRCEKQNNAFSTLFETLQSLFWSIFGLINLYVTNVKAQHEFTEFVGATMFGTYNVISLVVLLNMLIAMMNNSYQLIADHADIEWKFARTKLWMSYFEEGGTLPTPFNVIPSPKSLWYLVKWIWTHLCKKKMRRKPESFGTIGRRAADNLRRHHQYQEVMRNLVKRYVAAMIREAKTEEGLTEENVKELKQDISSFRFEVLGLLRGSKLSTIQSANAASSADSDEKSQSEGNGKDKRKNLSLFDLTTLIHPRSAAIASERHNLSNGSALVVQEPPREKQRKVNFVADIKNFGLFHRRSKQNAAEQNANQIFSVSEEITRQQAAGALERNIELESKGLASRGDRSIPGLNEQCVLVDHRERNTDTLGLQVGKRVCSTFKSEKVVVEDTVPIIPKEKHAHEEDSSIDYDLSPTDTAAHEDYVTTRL

Cytochrome P450 3A4 = Cytochrome P450 3A4 (Homo sapiens, UniProt P08684); conditions: Potency;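 further: confirmatory qHTS run detecting inhibitors and substrates of CYP3A4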
Cytochrome P450 3A4, sequence (P08684 whole entry): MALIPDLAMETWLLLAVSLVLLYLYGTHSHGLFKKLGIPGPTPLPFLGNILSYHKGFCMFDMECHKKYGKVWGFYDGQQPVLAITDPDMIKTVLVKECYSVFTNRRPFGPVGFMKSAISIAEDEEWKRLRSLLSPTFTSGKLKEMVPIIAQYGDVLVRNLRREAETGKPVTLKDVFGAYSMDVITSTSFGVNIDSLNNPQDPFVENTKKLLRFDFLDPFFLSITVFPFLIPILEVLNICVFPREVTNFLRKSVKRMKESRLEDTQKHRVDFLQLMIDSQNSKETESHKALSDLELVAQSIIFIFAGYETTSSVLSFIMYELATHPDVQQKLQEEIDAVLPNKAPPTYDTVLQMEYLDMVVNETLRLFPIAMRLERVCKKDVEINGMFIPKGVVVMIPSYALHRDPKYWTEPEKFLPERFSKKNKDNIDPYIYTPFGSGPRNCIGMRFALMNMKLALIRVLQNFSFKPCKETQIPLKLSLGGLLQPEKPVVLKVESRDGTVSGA

Protein skinhead-1 = target: T4, Protein skinhead-1 (Caenorhabditis elegans, UniProt P34707); assay type: functional
T4 sequence (P34707 whole entry): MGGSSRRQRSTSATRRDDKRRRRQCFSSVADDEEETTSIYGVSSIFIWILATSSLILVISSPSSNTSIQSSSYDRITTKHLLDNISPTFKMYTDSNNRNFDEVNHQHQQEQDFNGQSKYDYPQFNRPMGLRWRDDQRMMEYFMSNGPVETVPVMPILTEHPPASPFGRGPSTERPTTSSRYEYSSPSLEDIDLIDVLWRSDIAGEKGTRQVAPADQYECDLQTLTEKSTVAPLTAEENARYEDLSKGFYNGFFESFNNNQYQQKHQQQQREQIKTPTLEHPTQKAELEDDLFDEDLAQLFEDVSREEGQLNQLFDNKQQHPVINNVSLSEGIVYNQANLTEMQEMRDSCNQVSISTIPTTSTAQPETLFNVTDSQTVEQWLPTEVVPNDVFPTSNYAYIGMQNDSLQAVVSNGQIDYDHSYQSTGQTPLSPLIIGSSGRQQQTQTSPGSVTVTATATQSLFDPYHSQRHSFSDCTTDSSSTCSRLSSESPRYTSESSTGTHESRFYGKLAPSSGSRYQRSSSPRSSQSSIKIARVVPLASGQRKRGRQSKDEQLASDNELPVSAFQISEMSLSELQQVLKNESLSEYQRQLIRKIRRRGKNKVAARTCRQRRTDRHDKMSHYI

Nonstructural protein 1 = Nonstructural protein 1 (Influenza A virus, UniProt Q194T2); assay type: functional, Influenza A virus (A/California/07/2009(H1N1))
Nonstructural protein 1, sequence (Q194T2 whole entry): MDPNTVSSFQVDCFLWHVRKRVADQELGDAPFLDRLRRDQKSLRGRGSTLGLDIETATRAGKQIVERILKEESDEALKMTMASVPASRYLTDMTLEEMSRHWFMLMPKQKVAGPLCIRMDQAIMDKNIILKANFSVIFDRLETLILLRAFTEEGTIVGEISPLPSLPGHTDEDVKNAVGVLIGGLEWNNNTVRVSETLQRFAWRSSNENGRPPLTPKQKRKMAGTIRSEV

[4] = HEK-293T viability loss after treatment – luminescence, T-cell screen hits, cytotoxicity control for TCR NF-kB inhibitor project, dose response (AID 489026); assay type: functional, cell-based;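 further: cells exposed to compound about 14 hours before the viability readout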
[5] = luciferase reporter signal suppression in cells – H4 neuroglioma cells, luminescence, dose response (AID 1990); assay type: functional, cell-based
[6] = Luminescence Cell-Based Dose Response HTS to Identify Inhibitors of 5'UTR Stem-Loop Driven Prion Protein mRNA Translation in H4 Neuroglioblastoma Cells. [Related pubchem assays: 1827 (Project Summary), 1813 (Primary HTS)]; assay type: functional

CCc1nnc(NC(=O)CSc2nnc(-c3cc4ccccc4cc3O)n2CC)s1
Ki (fMet-Leu-Phe receptor): 61.1 µM (inactive)

Clc1ccc2oc3c(Cl)ncnc3c2c1
IC50 [1]: 6.41 µM (active)

COc1ccc(-c2cc3nc4n(c(=O)c3s2)CCCCC4)cc1
IC50 (HEK293): > 67.5 µM (inactive)
IC50 [2]: > 67.5 µM (inactive)

CCCC(=O)n1nc(-c2cccnc2)nc1NCc1cccs1
IC50 (Prothrombin): 0.00426 µM (active)

COc1ccc(CN2CCC(n3nccc3NC(=O)CCc3ccccc3)CC2)c(C)c1C
EC50 [3]: 2.11 µM (active)

CC(C)c1ccc2c(c1)CCC1C(C)(C(N)=O)CCCC21C (configuration not stated)
AC50 (Cytochrome P450 3A4): 20 µM (inconclusive)

NC(=O)c1ccsc1NC(=O)c1nc(-c2ccccc2)n(-c2ccccc2)n1
IC50 (Prothrombin): 4.3 µM (active)

CCN1C(=O)/C(=C2\C=Cc3cc(C)ccc3N2CC)OC1=S
IC50 (Protein skinhead-1): > 100 µM (inactive)
IC50 (Nonstructural protein 1): > 100 µM (active)

Cc1ccc(/C=C2\C(=O)NC(=O)N(CCc3ccc(F)cc3)C2=O)o1
IC50 [1]: 3.55 µM (active)

Cc1ccc2[nH]c(SCC(=O)Nc3cc(C(F)(F)F)ccc3N3CCOCC3)nc2c1
IC50 [4]: > 80 µM (inactive)
EC50 [5]: 5.2 µM (inconclusive)
EC50 [6]: 27.9 µM (active)

O=C1NC2(CCCCC2)NN1c1ccccc1
IC50 (Prothrombin): > 50 µM (not active)

COCCN(CCOC)c1nc(C)nc2c1nc(-c1ccccc1)n2CCN1CCCC1
AC50 (Cytochrome P450 3A4): 20 µM (inconclusive)

CC(C)=CCC/C(C)=C/C=C/C1=CC2(C)CC1(C)C(/C=C(\C)CCC=C(C)C)CC2=O (configuration not stated)
AC50 (Cytochrome P450 3A4): 3.98 µM (inconclusive)

O=C(CSC1CCCCC1)Nc1nccs1
IC50 (Prothrombin): > 50 µM (not active)

COCCN(C(S)=Nc1cccc(C)c1C)C(C)c1ccco1 (configuration not stated)
IC50 (HEK293): > 67.6 µM (inactive)
IC50 [2]: > 67.6 µM (inactive)

CCOc1cnc(C(=O)NNC(=O)C(Br)C(C)C)o1 (configuration not stated)
IC50 (HEK293): > 67.5 µM (inactive)
IC50 [2]: > 67.5 µM (inactive)
